{"source": "patent US9745297B2", "about": "“Compounds as modulators of RORC” (Boehringer Ingelheim International GmbH, priority 2013, dated 2017)", "target": "T1, RORγt (Homo sapiens, UniProt P51449)", "T1 construct": "expressed in transfected cells", "T1 sequence (P51449 269-508 limits assumed)": "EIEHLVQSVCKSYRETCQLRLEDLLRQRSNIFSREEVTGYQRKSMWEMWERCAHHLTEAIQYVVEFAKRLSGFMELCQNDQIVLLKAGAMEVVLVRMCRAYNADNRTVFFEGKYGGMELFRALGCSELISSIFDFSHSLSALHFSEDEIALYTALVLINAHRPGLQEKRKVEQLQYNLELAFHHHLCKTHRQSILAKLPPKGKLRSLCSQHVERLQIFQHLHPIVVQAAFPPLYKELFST", "assay": "RGA Assay: nuclear receptor transactivation assay, RORγt transactivation of a luciferase reporter", "format": "cell-based", "conditions": "transiently transfected HEK 293 cells (pGL4.3 luc2P/GAL4UAS, pBIND Gal4DBD hRORC LBD), 20-24 hours incubation, luciferase readout", "procedure": "A nuclear receptor transactivation assay was performed to quantitate the ability of test compounds to inhibit RORγt transactivation of a luciferase reporter. A similar assay is described in: Khan et al., Bioorganic & Medicinal Chemistry Letters 23 (2013), 532-536. The system uses transiently transfected HEK 293 cells cotransfected with two plasmids (pGL4.3, luc2P/GAL4UAS/Hygro, and pBIND, Ga14DBD hRORC LBD1-3). The positive control is co-transiently transfected with both plasmids, and the negative control contains the pGL4.3 promoter sequence. Assays were assembled in 384 well plates where transiently transfected cells and test compound at varying concentrations were incubated for 20-24 hours. The next day, assays plates are taken out and equillibrated at RT for 20-30 minutes. Bright-Glo™ Luciferase Assay System is used to detect Luciferase production. After addition of Bright GLO detection reagent, the plates were incubated at RT for 20 minutes. The plates were read on an Envision plate reader to measure luminescence signal. The RLU signal is converted to POC relative to control and blank wells.\nCompound Dilution Buffer:\nBright Glo Luciferase Assay System: Promega #E2620\nThaw lysis buffer provided in kit, add 100 mL lysis buffer to substrate powder.", "data": [{"smiles": "COc1ncnc(C2CC2)c1-c1ccc2c(n1)C1(CCCC1)CN2C(=O)NCc1ccc(S(C)(=O)=O)cc1", "note": "[Example 66]", "values": [{"measurement": "IC50", "result": 650, "unit": "nM"}]}, {"smiles": "CCS(=O)(=O)c1ccc(CNC(=O)N2CC3(CCCC3)c3nc(-c4c(OC(C)C)ncnc4C4CC4)ccc32)cc1", "note": "[Example 67]", "values": [{"measurement": "IC50", "result": 830, "unit": "nM"}]}, {"smiles": "CC(C)Oc1ncnc(C2CC2)c1-c1ccc2c(n1)C1(CCCC1)CN2C(=O)NCc1ccc(S(C)(=O)=O)cc1", "note": "[Example 68]", "values": [{"measurement": "IC50", "result": 2500, "unit": "nM"}]}, {"smiles": "CCOc1ncnc(C2CC2)c1-c1ccc2c(n1)C1(CCCC1)CN2C(=O)NCc1ccc(S(C)(=O)=O)cc1", "note": "[Example 69]", "values": [{"measurement": "IC50", "result": 1100, "unit": "nM"}]}, {"smiles": "CCOc1ncnc(C2CC2)c1-c1ccc2c(n1)C1(CCCC1)CN2C(=O)NCc1ccc(S(=O)(=O)CC)cc1", "note": "[Example 70]", "values": [{"measurement": "IC50", "result": 760, "unit": "nM"}]}, {"smiles": "CCC1(C)CN(C(=O)NCc2ccc(S(=O)(=O)CC)cc2)c2ccc(-c3cncnc3C(C)C)nc21", "note": "(stereo not drawn) [Example 72]", "values": [{"measurement": "IC50", "result": 2800, "unit": "nM"}]}, {"smiles": "CCC1(C)CN(C(=O)NCc2ccc(S(=O)(=O)CC)cc2)c2ccc(-c3c(OC)ncnc3C3CC3)nc21", "note": "(stereo not drawn) [Example 73]", "values": [{"measurement": "IC50", "result": 1500, "unit": "nM"}]}, {"smiles": "CCS(=O)(=O)c1ccc(CNC(=O)N2CC3(CCCC3)c3nc(-c4c(OC)ncnc4C(F)(F)F)ccc32)cc1", "note": "[Example 74]", "values": [{"measurement": "IC50", "result": 310, "unit": "nM"}]}, {"smiles": "COc1ncnc(C(F)(F)F)c1-c1ccc2c(n1)C1(CCCC1)CN2C(=O)NCc1ccc(S(C)(=O)=O)cc1", "note": "[Example 75]", "values": [{"measurement": "IC50", "result": 3700, "unit": "nM"}]}, {"smiles": "CCS(=O)(=O)N1CCC(CNC(=O)N2CC3(CCCC3)c3nc(-c4c(OC)ncnc4C4CC4)ccc32)CC1", "note": "[Example 76]", "values": [{"measurement": "IC50", "result": 15000, "unit": "nM"}]}, {"smiles": "COc1ncnc(C2CC2)c1-c1ccc2c(n1)C(C)(C)CN2C(=O)NCc1ccc(S(C)(=O)=O)cc1", "note": "[Example 77]", "values": [{"measurement": "IC50", "result": 4000, "unit": "nM"}]}, {"smiles": "CNS(=O)(=O)c1ccc(CNC(=O)N2CC(C)(C)c3nc(-c4c(OC)ncnc4C4CC4)ccc32)cc1", "note": "[Example 78]", "values": [{"measurement": "IC50", "result": 2400, "unit": "nM"}]}, {"smiles": "CCS(=O)(=O)c1ccc(CNC(=O)N2CC3(CCCC3)c3nc(-c4c(C)ncnc4C4CC4)ccc32)cc1", "note": "[Example 79]", "values": [{"measurement": "IC50", "result": 380, "unit": "nM"}]}, {"smiles": "Cc1ncnc(C2CC2)c1-c1ccc2c(n1)C1(CCCC1)CN2C(=O)NCc1ccc(S(C)(=O)=O)cc1", "note": "[Example 80]", "values": [{"measurement": "IC50", "result": 840, "unit": "nM"}]}, {"smiles": "CCS(=O)(=O)c1ccc(CNC(=O)N2CC(C)(C)c3nc(-c4c(OC)ncnc4C(F)(F)F)ccc32)cc1", "note": "[Example 81]", "values": [{"measurement": "IC50", "result": 1500, "unit": "nM"}]}, {"smiles": "CCS(=O)(=O)c1ccc(CNC(=O)N2CC3(CCCC3)c3nc(-c4cc(CN5CC[C@@H](O)C5)ccc4C4CC4)ccc32)cc1", "note": "[Example 82]", "values": [{"measurement": "IC50", "result": 7000, "unit": "nM"}]}, {"smiles": "CCS(=O)(=O)c1ccc(CNC(=O)N2CC3(CCCC3)c3nc(-c4cc(CN5CC[C@H](O)C5)ccc4C4CC4)ccc32)cc1", "note": "[Example 83]", "values": [{"measurement": "IC50", "result": 6900, "unit": "nM"}]}, {"smiles": "CCS(=O)(=O)c1ccc(CNC(=O)N2CC3(CCCC3)c3nc(-c4cc(CN5CC[C@@H](O)C5)ccc4C)ccc32)cc1", "note": "[Example 84]", "values": [{"measurement": "IC50", "result": "> 30000", "unit": "nM"}]}, {"smiles": "CCS(=O)(=O)c1ccc(CNC(=O)N2CC3(CCCC3)c3nc(-c4cc(CN5CC[C@H](O)C5)ccc4C)ccc32)cc1", "note": "[Example 85]", "values": [{"measurement": "IC50", "result": "> 30000", "unit": "nM"}]}, {"smiles": "CNS(=O)(=O)c1ccc(CNC(=O)N2CC3(CCCC3)c3cc(-c4ccc(F)cc4C)ncc32)cc1", "note": "[Example 86]", "values": [{"measurement": "IC50", "result": 2600, "unit": "nM"}]}, {"smiles": "COc1ccc(-c2cc3c(cn2)N(C(=O)NCc2ccc(S(C)(=O)=O)cc2)CC3(C)C)c(C(F)(F)F)c1", "note": "[Example 87]", "values": [{"measurement": "IC50", "result": 3900, "unit": "nM"}]}, {"smiles": "CC(C)c1ncncc1-c1cc2c(cn1)N(C(=O)NCc1ccc(S(C)(=O)=O)cc1)CC2(C)C", "note": "[Example 88]", "values": [{"measurement": "IC50", "result": "> 30000", "unit": "nM"}]}, {"smiles": "Cc1cc(F)ccc1-c1cc2c(cn1)N(C(=O)NCc1ccc(S(C)(=O)=O)cc1)CC2(C)C", "note": "[Example 89]", "values": [{"measurement": "IC50", "result": "> 30000", "unit": "nM"}]}, {"smiles": "COc1cc(C)c(-c2cc3c(cn2)N(C(=O)NCc2ccc(S(C)(=O)=O)cc2)CC3(C)C)cn1", "note": "[Example 90]", "values": [{"measurement": "IC50", "result": "> 30000", "unit": "nM"}]}, {"smiles": "Cc1cc(O)ccc1-c1cc2c(cn1)N(C(=O)NCc1ccc(S(C)(=O)=O)cc1)CC2(C)C", "note": "[Example 91]", "values": [{"measurement": "IC50", "result": "> 30000", "unit": "nM"}]}, {"smiles": "Cc1cc(C#N)ccc1-c1cc2c(cn1)N(C(=O)NCc1ccc(S(C)(=O)=O)cc1)CC2(C)C", "note": "[Example 92]", "values": [{"measurement": "IC50", "result": "> 30000", "unit": "nM"}]}, {"smiles": "CCS(=O)(=O)c1ccc(CNC(=O)N2CC3(CCCC3)c3cc(-c4c(OC)ncnc4C4CC4)ncc32)cc1", "note": "[Example 93]", "values": [{"measurement": "IC50", "result": 740, "unit": "nM"}]}, {"smiles": "CCS(=O)(=O)c1ccc(CNC(=O)N2CC(C)(C)c3cc(-c4c(OC)ncnc4C4CC4)ncc32)cc1", "note": "[Example 94]", "values": [{"measurement": "IC50", "result": 3800, "unit": "nM"}]}, {"smiles": "CCS(=O)(=O)c1ccc(CNC(=O)N2CC3(CCCC3)c3cc(-c4cnc(OC)nc4C4CC4)ncc32)cc1", "note": "[Example 95]", "values": [{"measurement": "IC50", "result": "> 30000", "unit": "nM"}]}, {"smiles": "CCS(=O)(=O)c1ccc(CNC(=O)N2CC3(CCCC3)c3cc(Cl)ncc32)cc1", "note": "[Example 96]", "values": [{"measurement": "IC50", "result": "> 30000", "unit": "nM"}]}, {"smiles": "CCS(=O)(=O)c1ccc(CNC(=O)N2CC3(CCCC3)c3nc(-c4c(C5CC5)ncnc4C4CC4)ccc32)cc1", "note": "[Example 97]", "values": [{"measurement": "IC50", "result": 200, "unit": "nM"}]}, {"smiles": "CCS(=O)(=O)c1ccc(CNC(=O)N2CC3(CCCC3)c3nc(-c4c(C5CC5)ncnc4C4CC4)ccc32)nc1", "note": "[Example 98]", "values": [{"measurement": "IC50", "result": 370, "unit": "nM"}]}, {"smiles": "CCS(=O)(=O)c1ccc(CNC(=O)N2CC3(CCCC3)c3nc(-c4c(C)ncnc4C(F)(F)F)ccc32)cc1", "note": "[Example 99]", "values": [{"measurement": "IC50", "result": 360, "unit": "nM"}]}, {"smiles": "CCc1ncnc(C2CC2)c1-c1ccc2c(n1)C1(CCCC1)CN2C(=O)NCc1ccc(S(=O)(=O)CC)cc1", "note": "[Example 100]", "values": [{"measurement": "IC50", "result": 220, "unit": "nM"}]}, {"smiles": "CCc1ncnc(C2CC2)c1-c1ccc2c(n1)C1(CCCC1)CN2C(=O)NCc1ccc(S(=O)(=O)CC)cn1", "note": "[Example 101]", "values": [{"measurement": "IC50", "result": 420, "unit": "nM"}]}, {"smiles": "CCS(=O)(=O)c1cnc(CNC(=O)N2CC3(CCCC3)c3nc(-c4c(OC)ncnc4C4CC4)ccc32)nc1", "note": "[Example 102]", "values": [{"measurement": "IC50", "result": 730, "unit": "nM"}]}]}
